According to ChEMBL document CHEMBL5316285 (J Med Chem, 2023):
pIC50: −log10 of the molar value. The source made the active and inactive calls. No cut-off for these calls is given here.

Experiments:
[1] = Toxicity in nude mouse xenografted with human A2780 cells assessed as loss in body weight at 2 uM/Kg, IV once every 3 days upto 21 days; conditions: 504 h, time 21 day
[2] = Retinal toxicity in nude mouse xenografted with human A2780 cells at 2 uM/Kg, IV once every 3 days upto 21 days by microscopic analysis; conditions: 504 h, time 21 day
[3] = target: T1, Nicotinamide phosphoribosyltransferase (Homo sapiens, UniProt P43490); test: Inhibition of NAMPT (unknown origin) using NAM as substrate preincubated for 5 mins followed by substrate addition measured after 15 mins in presence of ATP by fluorescence based microplate reader analysis
Target sequence in this assay (P43490 whole entry): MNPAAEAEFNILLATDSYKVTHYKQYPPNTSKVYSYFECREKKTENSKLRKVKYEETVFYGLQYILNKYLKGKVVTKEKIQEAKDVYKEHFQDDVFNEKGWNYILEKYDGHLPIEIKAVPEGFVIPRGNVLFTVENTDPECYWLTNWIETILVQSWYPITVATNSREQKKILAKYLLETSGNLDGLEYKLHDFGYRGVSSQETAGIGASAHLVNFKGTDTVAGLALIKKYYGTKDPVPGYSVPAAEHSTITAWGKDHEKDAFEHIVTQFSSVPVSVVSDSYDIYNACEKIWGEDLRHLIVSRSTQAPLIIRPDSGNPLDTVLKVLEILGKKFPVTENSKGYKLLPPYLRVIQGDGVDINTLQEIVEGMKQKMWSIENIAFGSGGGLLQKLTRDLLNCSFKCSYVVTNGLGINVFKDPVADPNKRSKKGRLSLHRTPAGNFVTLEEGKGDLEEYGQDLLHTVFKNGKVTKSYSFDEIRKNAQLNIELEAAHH

[4] = target: T2, von Hippel-Lindau disease tumor suppressor/Nicotinamide phosphoribosyltransferase (Homo sapiens, UniProt P43490+P40337); test: Protac activity at VHL/NAMPT in human A2780 cells assessed as degradation of NAMPT using NAM as substrate preincubated for 5 mins followed by substrate addition measured after 5 mins in presence of ATP by luminesence based microplate reader analysis; assay type: cell-based
Target sequence in this assay (P43490 whole entry): as above
Target sequence in this assay (P40337 whole entry): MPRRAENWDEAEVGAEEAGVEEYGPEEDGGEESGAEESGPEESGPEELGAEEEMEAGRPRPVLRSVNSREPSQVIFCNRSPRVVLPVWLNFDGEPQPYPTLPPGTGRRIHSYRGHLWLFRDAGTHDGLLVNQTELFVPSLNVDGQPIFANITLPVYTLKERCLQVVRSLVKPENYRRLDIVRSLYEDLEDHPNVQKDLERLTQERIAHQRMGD

[5] = system: A2780; test: Antiproliferative activity against human A2780 cells incubated for 72 hrs in carbon-dioxide atmosphere measured by cell counting kit-8 method; assay type: functional, cell-based; conditions: A2780, 72 h
[6] = target: T2, von Hippel-Lindau disease tumor suppressor/Nicotinamide phosphoribosyltransferase; test: Protac activity at VHL/NAMPT in human A2780 cells assessed as reduction of NAMPT protein level at 10 nM measured after 24 hrs by Western blotting analysis; assay type: cell-based
Target sequence in this assay (P40337 whole entry, looked up): as the sequence (P40337 whole entry) above
Target sequence in this assay (P43490 whole entry, looked up): as the sequence (P43490 whole entry) above

[7] = target: T2, von Hippel-Lindau disease tumor suppressor/Nicotinamide phosphoribosyltransferase; test: Protac activity at VHL/NAMPT in human A2780 cells assessed as induction of NAMPT degradation measured at 0.005 to 10 microM after 24 hrs by Western blotting analysis; assay type: cell-based; conditions: dose 0.005-10 µM
Target sequence in this assay (P40337 whole entry, looked up): as the sequence (P40337 whole entry) above
Target sequence in this assay (P43490 whole entry, looked up): as the sequence (P43490 whole entry) above

[8] = target: T2, von Hippel-Lindau disease tumor suppressor/Nicotinamide phosphoribosyltransferase; test: Protac activity at VHL/NAMPT in human A2780 cells assessed as reduction of NAMPT protein level at greater than 0.37 uM measured after 24 hrs by Western blotting analysis; assay type: cell-based
Target sequence in this assay (P40337 whole entry, looked up): as the sequence (P40337 whole entry) above
Target sequence in this assay (P43490 whole entry, looked up): as the sequence (P43490 whole entry) above

[9] = system: CT26; test: Antiproliferative activity against mouse CT26 cells; assay type: functional, cell-based
[10] = target: T2, von Hippel-Lindau disease tumor suppressor/Nicotinamide phosphoribosyltransferase; test: Protac activity at VHL/NAMPT in human A2780 cells assessed as induction of NAMPT degradation measured at 10 nM; assay type: cell-based; conditions: time <= 24.0 hrs, TDE = time-dependent effect
Target sequence in this assay (P40337 whole entry, looked up): as the sequence (P40337 whole entry) above
Target sequence in this assay (P43490 whole entry, looked up): as the sequence (P43490 whole entry) above

[11] = target: T1, Nicotinamide phosphoribosyltransferase; test: Binding affinity to NAMPT in human A2780 cells incubated at 10 uM measured from 63 to 75 degreeC for 7 hrs by cellular thermal shift assay; assay type: cell-based
Target sequence in this assay (P43490 whole entry, looked up): as the sequence (P43490 whole entry) above

[12] = target: von Hippel-Lindau disease tumor suppressor (Homo sapiens) (UniProt P40337); test: Binding affinity to VHL in human A2780 cells incubated at 10 uM measured from 63 to 75 degreeC for 7 hrs by cellular thermal shift assay; assay type: cell-based
[13] = target: T1, Nicotinamide phosphoribosyltransferase; test: Competitive binding activity at NAMPT in human A2780 cells assessed as blocking of NAMPT degradation pretreated with 200 nM of 1-(4-(piperidin-1-ylsulfonyl)phenyl)-3-(pyridin-3-ylmethyl)thiourea for 2 hrs followed by compound addition at 10 nM measured after 24 hrs by Western blotting analysis; assay type: cell-based
Target sequence in this assay (P43490 whole entry, looked up): as the sequence (P43490 whole entry) above

[14] = target: T1, Nicotinamide phosphoribosyltransferase; test: Competitive binding activity at NAMPT in human A2780 cells assessed as blocking of NAMPT degradation pretreated with 100 uM of (2S,4R)-1-((S)-2-acetamido-3,3-dimethylbutanoyl)-4-hydroxy-N-((S)-1-(4-(4-methylthiazol-5-yl)phenyl)ethyl)pyrrolidine-2-carboxamide for 2 hrs followed by compound addition at 10 nM measured after 24 hrs by Western blotting analysis; assay type: cell-based
Target sequence in this assay (P43490 whole entry, looked up): as the sequence (P43490 whole entry) above

[15] = target: T1, Nicotinamide phosphoribosyltransferase; test: Competitive binding activity at NAMPT in human A2780 cells assessed as blocking of NAMPT degradation pretreated with carfilzomib for 2 hrs followed by compound addition at 10 nM measured after 24 hrs by Western blotting analysis; assay type: cell-based
Target sequence in this assay (P43490 whole entry, looked up): as the sequence (P43490 whole entry) above

[16] = target: T1, Nicotinamide phosphoribosyltransferase; test: Competitive binding activity at NAMPT in human A2780 cells assessed as blocking of NAMPT degradation pretreated with MLN4924 for 2 hrs followed by compound addition at 10 nM measured after 24 hrs by Western blotting analysis; assay type: cell-based
Target sequence in this assay (P43490 whole entry, looked up): as the sequence (P43490 whole entry) above

[17] = target: T1, Nicotinamide phosphoribosyltransferase; test: Competitive binding activity at NAMPT in human A2780 cells assessed as blocking of NAMPT degradation pretreated with epoxomicin for 2 hrs followed by compound addition at 10 nM measured after 24 hrs by Western blotting analysis; assay type: cell-based
Target sequence in this assay (P43490 whole entry, looked up): as the sequence (P43490 whole entry) above

[18] = target: T1, Nicotinamide phosphoribosyltransferase; test: Competitive binding activity at NAMPT in human A2780 cells assessed as blocking of NAMPT degradation pretreated with MG132 for 2 hrs followed by compound addition at 10 nM measured after 24 hrs by Western blotting analysis; assay type: cell-based
[19] = system: A2780; test: Downregulation of NAD+ in human A2780 cells treated upto 1000 nM for 24 hrs by chromogen based assay; assay type: functional, cell-based
[20] = Half life in Sprague-Dawley rat plasma at 5 mg/kg, iv by LC-MS/MS analysis; assay type: ADME, organism-based
[21] = Half life in mouse plasma at 5 mg/kg, iv by LC-MS/MS analysis; assay type: ADME, organism-based
[22] = Cmax in Sprague-Dawley rat plasma at 5 mg/kg, iv after 0.083 to 24 hrs by LC-MS/MS analysis; assay type: ADME, organism-based; parameters: dose 5 mg/kg, time upper 24 hrs, time lower 0.083 hrs, route iv
[23] = Cmax in mouse plasma at 5 mg/kg, iv after 0.083 to 24 hrs by LC-MS/MS analysis; assay type: ADME, organism-based; parameters: time upper 24 hrs, dose 5 mg/kg, time lower 0.083 hrs, route iv
[24] = AUC in Sprague-Dawley rat plasma at 5 mg/kg, iv after 0.083 to 24 hrs by LC-MS/MS analysis; assay type: ADME, organism-based; parameters: dose 5 mg/kg, time upper 24 hrs, time lower 0.083 hrs, route iv
[25] = AUC in mouse plasma at 5 mg/kg, iv after 0.083 to 24 hrs by LC-MS/MS analysis; assay type: ADME, organism-based; parameters: time lower 0.083 hrs, dose 5 mg/kg, time upper 24 hrs, route iv
[26] = Cmax in Sprague-Dawley rat plasma at 20 mg/kg, IP after 0.083 to 24 hrs by LC-MS/MS analysis; assay type: ADME, organism-based; parameters: time lower 0.083 hrs, dose 20 mg/kg, time upper 24 hrs, route ip
[27] = Cmax in mouse plasma at 20 mg/kg, IP after 0.083 to 24 hrs by LC-MS/MS analysis; assay type: ADME, organism-based; parameters: time upper 24 hrs, time lower 0.083 hrs, dose 20 mg/kg, route ip
[28] = system: A2780; test: Antitumor activity against human A2780 cells xenografted in nude mouse assessed as tumor growth inhibition at 2 uM/Kg, IV once every 3 days upto 21 days relative to control; assay type: functional; conditions: time 21 day, at 2 µmol/kg
[29] = Toxicity in nude mouse xenografted with human A2780 cells assessed as pathological damage in heart at 2 uM/Kg, IV once every 3 days upto 21 days by hematoxylin and eosin staining analysis; assay type: tissue-based; conditions: 504 h, time 21 day
[30] = Toxicity in nude mouse xenografted with human A2780 cells assessed as pathological damage in liver at 2 uM/Kg, IV once every 3 days upto 21 days by hematoxylin and eosin staining analysis; assay type: tissue-based; conditions: 504 h, time 21 day
[31] = Toxicity in nude mouse xenografted with human A2780 cells assessed as pathological damage in spleen at 2 uM/Kg, IV once every 3 days upto 21 days by hematoxylin and eosin staining analysis; assay type: tissue-based; conditions: 504 h, time 21 day
[32] = Toxicity in nude mouse xenografted with human A2780 cells assessed as pathological damage in lung at 2 uM/Kg, IV once every 3 days upto 21 days by hematoxylin and eosin staining analysis; assay type: tissue-based; conditions: 504 h, time 21 day
[33] = Toxicity in nude mouse xenografted with human A2780 cells assessed as pathological damage in kidney at 2 uM/Kg, IV once every 3 days upto 21 days by hematoxylin and eosin staining analysis; assay type: tissue-based; conditions: 504 h, time 21 day
[34] = system: A2780; test: Antitumor activity against human A2780 cells xenografted in nude mouse assessed as necrotic tumor cells at 2 uM/Kg, IV once every 3 days upto 21 days relative by hematoxylin and eosin staining analysis; assay type: functional, cell-based; conditions: time 21.0 day
[35] = system: A2780; test: Antitumor activity against human A2780 cells xenografted in nude mouse assessed as reduction in Ki67 expression in tumor tissue at 2 uM/Kg, IV once every 3 days upto 21 days relative by immuno histochemical analysis; assay type: functional, cell-based; conditions: time 21.0 day
[36] = system: A2780; test: Antitumor activity against human A2780 cells xenografted in nude mouse assessed as reduction in NAMPT protein level in tumor tissue at 2 uM/Kg, IV after 3 days by immuno histochemical analysis; assay type: functional, cell-based; conditions: time 3.0 day
[37] = Half life in Sprague-Dawley rat plasma at 20 mg/kg, IP by LC-MS/MS analysis; assay type: ADME, organism-based
[38] = Tmax in Sprague-Dawley rat plasma at 5 mg/kg, iv by LC-MS/MS analysis; assay type: ADME, organism-based; conditions: time 0.083-24 hrs
[39] = Tmax in Sprague-Dawley rat plasma at 20 mg/kg, IP by LC-MS/MS analysis; assay type: ADME, organism-based
[40] = AUC in Sprague-Dawley rat plasma at 20 mg/kg, IP after 0.083 to 24 hrs by LC-MS/MS analysis; assay type: ADME, organism-based; parameters: dose 20 mg/kg, time 0.083-24 hrs, route ip
[41] = MRT in Sprague-Dawley rat plasma at 20 mg/kg, IP after 0.083 to 24 hrs by LC-MS/MS analysis; assay type: ADME, organism-based; conditions: time 0.083-24 hrs
[42] = MRT in Sprague-Dawley rat plasma at 5 mg/kg, iv after 0.083 to 24 hrs by LC-MS/MS analysis; assay type: ADME, organism-based; conditions: time 0.083-24 hrs

Sequence of von Hippel-Lindau disease tumor suppressor (Homo sapiens) (P40337 whole entry, looked up): as the sequence (P40337 whole entry) above

**Q.** For `Cc1ncsc1-c1ccc([C@H](C)NC(=O)[C@@H]2C[C@@H](O)CN2C(=O)[C@@H](NC(=O)CCCCCCCCN2CCN(S(=O)(=O)c3ccc(NC(=O)NCc4cccnc4)cc3)CC2)C(C)(C)C)cc1`, which Activity [1] is on record?
**A.** Non-Toxic

**Q.** And the Activity [2]?
**A.** Non-Toxic

**Q.** And the pIC50 [3]?
**A.** 6.82

**Q.** And the DC50 [4]?
**A.** < 0.00017 µM

**Q.** And the pIC50 [5]?
**A.** 8.82

**Q.** What about the Activity [6] of the same compound?
**A.** Active

**Q.** What about the Activity [7] of the same compound?
**A.** Dose-Dependent Effect

**Q.** And the Activity [8]?
**A.** inactive

**Q.** What about the pIC50 [9] of the same compound?
**A.** 6.17

**Q.** What about the Activity [10] of the same compound?
**A.** Tde

**Q.** And the Activity [11]?
**A.** Active

**Q.** What about the Activity [12] of the same compound?
**A.** Active

**Q.** And the Activity [13]?
**A.** Active

**Q.** What about the Activity [14] of the same compound?
**A.** Active

**Q.** What about the Activity [15] of the same compound?
**A.** Active

**Q.** What about the Activity [16] of the same compound?
**A.** Active

**Q.** And the Activity [17]?
**A.** Active

**Q.** What about the Activity [18] of the same compound?
**A.** Active

**Q.** What about the Activity [19] of the same compound?
**A.** Active

**Q.** And the half-life [20]?
**A.** 6.53 h

**Q.** And the half-life [21]?
**A.** 3.72 h

**Q.** What about the Cmax [22] of the same compound?
**A.** 3190 ng/mL

**Q.** What about the Cmax [23] of the same compound?
**A.** 1080 ng/mL

**Q.** And the AUC [24]?
**A.** 1310 ng·h/mL

**Q.** What about the AUC [25] of the same compound?
**A.** 477 ng·h/mL

**Q.** And the Cmax [26]?
**A.** 250 ng/mL

**Q.** What about the Cmax [27] of the same compound?
**A.** 417 ng/mL

**Q.** And the TGI [28]?
**A.** 88.1%

**Q.** What about the Activity [29] of the same compound?
**A.** Non-Toxic

**Q.** And the Activity [30]?
**A.** Non-Toxic

**Q.** What about the Activity [31] of the same compound?
**A.** Non-Toxic

**Q.** And the Activity [32]?
**A.** Non-Toxic

**Q.** And the Activity [33]?
**A.** Non-Toxic

**Q.** What about the Activity [34] of the same compound?
**A.** Active

**Q.** And the Activity [35]?
**A.** Active

**Q.** And the Activity [36]?
**A.** Active

**Q.** And the half-life [37]?
**A.** 5.41 h

**Q.** What about the Tmax [38] of the same compound?
**A.** 4.8 min

**Q.** What about the Tmax [39] of the same compound?
**A.** 5 h

**Q.** And the AUC [40]?
**A.** 1740 ng·h/mL

**Q.** What about the MRT [41] of the same compound?
**A.** 7.51 h

**Q.** What about the MRT [42] of the same compound?
**A.** 4.45 h
